One series deals with T1, HuR-mRNA interaction (Homo sapiens, UniProt Q15717).
T1 construct: made in house; host or cells: HEK293T cells
The series is described as follows: AlphaScreen assay, inhibition of HuR-mRNA interaction. The following applies: for IC50: rHuR and biotinylated RNA probe. In kind it is binding. As to the method:
The full encoding sequence for human HuR/ELAVL1 gene (NM001419) has been amplified from cDNA obtained by retro-transcription from RNA of MCF7 cells and inserted into the pCMV6-AC-Myc-His PrecisionShuttle vector (Origene Technologies). The pCMV6-HuR recombinant vector has been transfected into HEK293T cells by using the transfection reagent Lipofectamine® 2000 (Life Technologies) according to the manufacturer protocol. HEK293T cells have been cultured in a complete medium (10% DMEM, 10% FBS, 2 mM Glutamine, 100 units/ml penicillin+100 μg/ml streptomycin) in humidified 5% CO2 atmosphere at 37° C.
Two types of assay have been performed, in order to define the profile of the aza-tanshinones and their inhibitory activity. REMSA (RNA-EMSA, RNA electrophoresis mobility shift assay) in 5% polyacrylamide gel requires the use of a RNA fluorescent probe (5′-Cy3-[…]), while the AlphaScreen assay required a RNA 5′-biotinylated probe (BiTNF, 5′-[…]). […] IC50 values have been obtained by means of non-linear regression of the fit of the log(dose) response by using the same software.
Background: In Alpha technology, singlet oxygen from a donor bead excites a nearby acceptor bead.

Series [1] in a line: alamar Blue viability assay. It is filed as cell-based. As to conditions: human, 24 hours, vs DMSO. As to the method: (§1) Tumor cell lines of metastatic breast cancer (MDA-MB-231), breast cancer (MCF7), human monocytic leukemia (THP-1) and pancreatic carcinoma (PANC-1) have been cultured in a complete DMEM or RPMI 1640 (Gibco Life Technologies) supplemented with 10% fetal bovine serum (FBS, Lonza), 2 mM L-glutamine and 100 U/ml penicillin-streptomycin (Lonza). The cell lines have been cultured at 37° C. in 5% CO2 and have been regularly tested for Mycoplasma contamination. The viability has been measured by means of alamar Blue assay (Thermo Fisher) under treatment for 24 hours with nanomolar to micromolar doses of aza-tanshinones. The mean viability and the standard deviation (SD) per each test compound have been obtained from the dose-response curves for triple doses (0.01, 0.1, 1. 10. 50 μM) in comparison with the control vehicle (DMSO).
(§2) The group of cell lines used in Paragraph 8.2, with the addition of the tumor cell lines of the metastatic breast cancer SK-BR-3 and of the colon adenocarcinoma SW-480, has been used to measure the IC50/cytotoxicity potency of compound 26. The viability assays have been performed as shown in Paragraph 8.2.

Series [2] is described as follows: alamar Blue viability assay. It is filed as cell-based, human. As to conditions: human, THP-1 cells (monocytic leukemia), 24 hours, vs DMSO; for viability at 24 h, 10 µM: THP1, 10 μM; for viability at 24 h, 50 µM: THP1, 50 μM. As to the method: as §1, §2
(The colour change of resazurin is a common sign of viable cells or microbes.)

In the next series the test system is MCF7. The series is described as follows: alamar Blue viability assay. It is filed as cell-based. As to conditions: 24 hours, vs DMSO. As to the method:
as §1, §2

The subject of a further series is MDA-MB-231. The series is described as follows: alamar Blue viability assay. The following applies: 24 hours, vs DMSO. In kind it is cell-based. As to the method:
as §1, §2

The next series has as its system PANC-1. The series is described as follows: alamar Blue viability assay. It is filed as cell-based. The following applies: 24 hours, vs DMSO. As to the method:
as §1, §2

The subject of another series is THP-1. The series is described as follows: alamar Blue viability assay. In kind it is cell-based, human. As to conditions: for Viability: 24 hours, vs DMSO. As to the method: as §1, §2
Where [3] appears, read: MCF7 cells (breast cancer), MCF7, 10 μM.
Where [4] appears, read: MCF7 cells (breast cancer), MCF7, 50 μM.
Setting [5] is: MDA-MB-231 cells (metastatic breast cancer), MDA-MB-231, 10 μM.
Where [6] appears, read: MDA-MB-231 cells (metastatic breast cancer), MDA-MB-231, 50 μM.
Where [7] appears, read: PANC-1 cells (pancreatic carcinoma), PANC-1, 10 μM.
The mark [8] stands for this setting: PANC-1 cells (pancreatic carcinoma), PANC-1, 50 μM.

T1 sequence (Q15717 whole entry): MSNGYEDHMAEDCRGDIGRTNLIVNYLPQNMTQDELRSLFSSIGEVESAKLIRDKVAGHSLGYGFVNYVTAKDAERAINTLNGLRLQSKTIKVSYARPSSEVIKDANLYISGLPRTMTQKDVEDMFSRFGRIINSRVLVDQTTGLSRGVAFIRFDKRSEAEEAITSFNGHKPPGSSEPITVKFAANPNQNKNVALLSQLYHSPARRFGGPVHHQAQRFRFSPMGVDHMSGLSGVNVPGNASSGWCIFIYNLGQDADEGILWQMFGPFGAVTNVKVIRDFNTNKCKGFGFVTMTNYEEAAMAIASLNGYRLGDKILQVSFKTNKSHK

`O=C1C=Cc2c(c(-c3ccccc3)cn2S(=O)(=O)c2ccc([N+](=O)[O-])cc2)C1=O` [Compound 23, 1-(p-Nitrophenylsulfonyl)-3-phenyl-4,5-dioxo indole] came in with an IC50 on HuR-mRNA interaction of 0.241 ± 0.042 µM. Further, the viability at 24 h, 10 µM amounted to 100% in series [1] (setting [3]), 104% in series [1] (setting [5]), 92% in series [1] (setting [7]) and 98% in series [2]. Also, the viability at 24 h, 50 µM in series [1] (setting [4]) was found to be 66%; in series [1] (setting [6]), 80%; in series [1] (setting [8]), 36%; in series [2] it was 31%.
As to `O=C1C=Cc2c(c(-c3ccccc3)cn2S(=O)(=O)c2cccc([N+](=O)[O-])c2)C1=O` [Compound 24, 1-(m-Nitrophenylsulfonyl)-3-phenyl-4,5-dioxoindole], at HuR-mRNA interaction, the IC50 was 0.342 ± 0.064 µM. For the same compound, the viability at 24 h, 10 µM in series [1] (setting [3]) is 100%; in series [1] (setting [5]), 94%; in series [1] (setting [7]), 91%; in series [2], 100%. Also, the viability at 24 h, 50 µM in series [1] (setting [4]) was determined as 54%; in series [1] (setting [6]) it was 36%; in series [1] (setting [8]), 20%; in series [2], 27%.
`O=C1C=Cc2c(c(-c3ccccc3)cn2S(=O)(=O)c2ccc(F)cc2)C1=O` [Compound 25, 1-(p-Fluorophenylsulfonyl)-3-phenyl-4,5-dioxo indole]: the viability at 24 h, 10 µM in series [1] (setting [3]) amounted to 100%; in series [1] (setting [5]), 103%; in series [1] (setting [7]), 100%; in series [2], 100%. The viability at 24 h, 50 µM in series [1] (setting [4]) worked out at 63%; in series [1] (setting [6]) it was 50%; in series [1] (setting [8]), 29%; in series [2], 35%.
Take `O=C1C=Cc2c(c(-c3ccccc3)cn2S(=O)(=O)c2cccc(F)c2)C1=O` [Compound 27, 1-(m-Fluorophenylsulfonyl)-3-phenyl-4,5-dioxo indole]: on HuR-mRNA interaction, the IC50 was determined as 0.251 ± 0.031 µM. The viability at 24 h, 10 µM in series [1] (setting [3]) turned out to be 108%; in series [1] (setting [5]), 103%; in series [1] (setting [7]), 102%; in series [2], 83%. The viability at 24 h, 50 µM in series [1] (setting [4]) was 79%; in series [1] (setting [6]) it was 51%; in series [1] (setting [8]), 20%; in series [2] it was 32%.
On HuR-mRNA interaction, `COc1ccc(-c2cn(S(=O)(=O)c3ccccc3)c3c2C(=O)C(=O)C=C3)cc1` [Compound 28, 1-phenylsulfonyl-3-(p-methoxyphenyl)-4,5-dioxo indole] showed an IC50 of 0.287 ± 0.03 µM. In addition, the viability at 24 h, 10 µM in series [1] (setting [3]) turned out to be 91%; in series [1] (setting [5]) it was 106%; in series [1] (setting [7]), 90%; in series [2] it was 105%. Moreover, the viability at 24 h, 50 µM in series [1] (setting [4]) was 75%; in series [1] (setting [6]), 57%; in series [1] (setting [8]), 32%; in series [2], 46%.
On HuR-mRNA interaction, `COc1cccc(-c2cn(S(=O)(=O)c3ccccc3)c3c2C(=O)C(=O)C=C3)c1` [Compound 29, 1-Phenylsulfonyl-3-(m-methoxyphenyl)-4,5-dioxoindole] registered an IC50 of 0.352 ± 0.057 µM.
`O=C1C(=O)c2c(-c3ccccc3)cn(S(=O)(=O)c3ccccc3)c2C2=C1C1CCC2CC1` [Compound 32, 3-Phenyl-1-phenylsulfonyl-4,5-dioxo-6,9-ethanbenzo[g]indole] showed an IC50 on HuR-mRNA interaction of 0.121 ± 0.055 µM. The Viability was found to be 1.09 with MCF7 (MCF7, 10 μM); 0.14 in the series on MCF7 (MCF7, 50 μM); 1.00 in the series on MDA-MB-231 (MDA-MB-231, 10 μM); 0.28 in the series with MDA-MB-231 (MDA-MB-231, 50 μM); 0.85 in the series with PANC-1 (PANC-1, 10 μM); 0.15 with PANC-1 (PANC-1, 50 μM). In addition, the Viability in the series on THP-1 (THP1, 10 μM) came to 0.55; in the series on THP-1 (THP1, 50 μM), 0.00. Besides, the cell death result in the series with THP-1 (THP-1 cells, 10 μM) is given as “greater than 20%”.
Turning to `Cc1cccc2c3c(ccc12)C1=C(C(=O)C3=O)[C@@H](C)CO1` [DHTS, Dihydrotanshinone, reference compound], the inhibition constant Ki at HuR-mRNA interaction (1-site competition model, RNA 50 nM, Kd 2.5 nM, read-out: Complete Ki) is 0.00374 ± 0.00163 µM. The IC50 against HuR-mRNA interaction amounted to 0.149 ± 0.034 µM.

By IC50 is commonly meant the concentration that inhibits the measured activity by half. Read a high IC50 as weaker potency. As a reminder, the viability is a read-out of living cells in per cent, often relative to untreated cells. Usually Ki stands for a measure of affinity in units of concentration, obtained from inhibition or displacement.

These data come from patent US10689342B2, “Aza-tanshinone derivatives, process for their preparation and their use in therapy” (UNIVERSITA' DEGLI STUDI DI MILANO, priority 2016, dated 2020).
